Where two headings read alike, the source gives them in different places.

Take `O=C1Cc2cccc(c2)Nc2nccc(n2)-c2ccnc(c2)NCCCN1`: for the setting “from NCCCNc1cc(-c2ccnc(Nc3cccc(CC(=O)O)c3)n2)ccn1, amide bond, HATU, DMF, 1.52 mM, 0.0 °C, 3.0 h”, the ring closure, yield of all isomers is 74.2%.
As to `c1cc2cc(c1)OCCCNc1cc(ccn1)-c1ccnc(n1)N2`, the ring closure, yield of all isomers (from Oc1cccc(Nc2nccc(-c3ccnc(NCCCBr)c3)n2)c1, ether bond, K2CO3, acetone, 6.5 mM, 56.0 °C, 3.0 h, 2 steps) was determined as 26.5%.
Where the note is “from Oc1cccc(Nc2nccc(-c3cccnc3NCCCBr)n2)c1, ether bond, K2CO3, acetone, 19.3 mM, 56.0 °C, 6.0 h, 3 steps”, `c1cc2cc(c1)OCCCNc1ncccc1-c1ccnc(n1)N2` came in with a ring closure, yield of all isomers of 34.6%.
